On the set-up of series [1]: method as in PMID 38744031. As to conditions: rat, cited from earlier work.
In the next series the test system is PC3 cells. Conditions: cited from earlier work.
The nature of series [2]: Tissue distribution and urinary excretion after IV dose in rats. It counts as in vivo, Sprague Dawley rats. The method, then:
Each tissue sample was weighed and homogenized in a clean scintillation vial with 0.9% saline (1:1, w/v) using the VWR 200 Homogenizer to make tissue homogenates. Homogenization was carried out on ice at a speed of 5000 rpm for all tissues except the prostate and kidney (10,000 rpm). A five-point calibration curve was prepared for the different tissues in the range of 0.39–25 ng/g. One hundred (100) μL of tissue homogenate samples were mixed with 10 μL of Griseofulvin (1.5 μg/mL, IS). The samples were vortexed for 30 seconds which was followed by protein precipitation with methanol (300 μL), to extract GT-14. The samples were again vortexed for 30 seconds, and then shaken on an automatic shaker for 5 minutes, followed by centrifugation at 14000 rpm for 20 minutes at 4°C. The supernatant was transferred to a sample vial, and a 5 μL aliquot was injected for LC-MS/MS analysis.
Healthy male Sprague Dawley rats (250–300 g) were used to evaluate the plasma pharmacokinetics and tissue distribution of GT-14, with approved animal protocol from the Institutional Animal Care and Use Committee (IACUC) at Texas Southern University. The jugular vein of rats was cannulated in-house the day before intravenous dosing and blood sample collection. GT-14 was administered intravenously as a co-solvent formulation via the jugular vein cannula at a dose of 5 mg/kg. Serial blood samples (100 μL) were collected up to 24 h post-dose. The blood samples were centrifuged at 3000 rpm for 10 min at 4°C, and plasma was collected and stored at −80°C till analysis. Urine samples were also collected at intervals of 0–7 and 7–24 hrs. using metabolic cages and stored at −20°C until analysis. At 24 hr, animals were sacrificed and organs such as prostate, liver, lungs, spleen, brain, kidneys, and heart were collected, following whole body perfusion (transcardiac perfusion) with normal saline to reduce residual blood in tissues. Plasma and tissue homogenate samples were processed (described in section “Analytical Assay”) and analyzed by LC-MS/MS. Tissue concentrations were calculated using the following formula: Tissueconcentrationng/g=CHTS×VHTS/WTS where, CHTS is the concentration (ng/mL) of GT-14 in the homogenized tissue sample; VHTS is the volume of homogenized tissue sample (mL) and WTS is the weight of tissue sample (g).

The mark [3] stands for this setting: rat, IV 5 mg/kg, 24 hr post dose, 5 mg/kg.

Results on one compound are retold here after PMC13050480, “Preclinical Development of GT-14, a Novel Inhibitor of Gαi2 Protein: Comprehensive Evaluation of Physicochemical, Metabolic Characteristics and Tissue Distribution” (The AAPS journal, 2025).

Where “and” joins values, the source holds several entries; their conditions need not be identical. Equal values may be shown once. Entries after “also recorded” stand apart in the source; their conditions may differ. Read-outs that look alike come from different tables or passages of the source. Bounds are passed on as bounds.

Regarding `C/C(=N\c1ccc(O)cc1)c1cc2ccccc2n1C` [GT-14, (E)-4-((1-(1-methyl-1H-indol-2-yl)ethylidene)amino)phenol], the “maximum plasma concentration (Cmax)” value in series [1] (IV bolus 5 mg/kg, two-compartment model) was “approximately 200 ng/mL”. For the same compound, the “terminal plasma elimination half-life” value is 4.4678 h and 4.468 h in series [1] (IV bolus 5 mg/kg, 5 mg/kg); above 4 h in series [1] (IV). Further, in series [1] (IV bolus 5 mg/kg), the “AUC0–∞” value is 23,742 min*ng/mL. Also, the “apparent volume of distribution (Vd)” value in series [1] (IV bolus 5 mg/kg) is 25,205 ± 2,585 mL/kg. Further, the distribution half-life in series [1] (IV bolus 5 mg/kg) is 0.267 h. In series [1] (IV bolus 5 mg/kg), the “mean systemic clearance (CL)” value is 229.9 mL/min/kg. The “Plasma half-life in rats” value in series [1] (IV) is 4 to 5 h. Also, the “migratory capability of PC3 cells” value in the series with PC3 cells is listed as “significant reduction”. In addition, the “stimulatory effects of docetaxel (cell migration) in PC3 cells” value in the series with PC3 cells (simultaneous treatment) is given as “blocked”. Further, the “drug cleared from plasma” value in series [2] (24-h time point post single dose injection) is given as around 99%. The concentration at 24 h in series [2] (male, Sprague Dawley, heart, rat, IV 5 mg/kg, 24 hr post dose, read-out: Tissue concentration, heart) was found to be 0.13 ± 0.06 ng/g; in series [2] (male, Sprague Dawley, kidney, rat, IV 5 mg/kg, 24 hr post dose, read-out: Tissue concentration, kidney), 0.52 ± 0.61 ng/g; in series [2] (male, Sprague Dawley, liver, rat, IV 5 mg/kg, 24 hr post dose, read-out: Tissue concentration, liver), 0.13 ± 0.01 ng/g; in series [2] (male, Sprague Dawley, lung, rat, IV 5 mg/kg, 24 hr post dose, read-out: Tissue concentration, lung), 0.55 ± 0.15 ng/g; in series [2] (male, Sprague Dawley, plasma, rat, IV 5 mg/kg, 24 hr post dose, read-out: Plasma concentration) it was 9.62 ± 2.82 ng/mL; in series [2] (male, Sprague Dawley, prostate, rat, IV 5 mg/kg, 24 hr post dose, read-out: Tissue concentration, prostate), 2.19 ± 1.26 ng/g. In addition, the Kp at 24 h in series [2] (male, Sprague Dawley, rat, intravenous, 5 mg/kg, all tissues, 24 hr post dose, read-out: tissue-to-plasma ratios) was below 1. In addition, the GT-14 in brain entry in series [2] (setting [3]) is recorded as “not detected; also recorded: detected in all sampled tissues except the brain”. In addition, in series [2] (setting [3]), the “Tissue distribution (rank order, accumulation)” value is “highest concentration of GT-14 in the prostate, followed by the kidneys, lungs, heart, and liver; also recorded: High accumulation in prostate”. In series [2] (rat, IV 5 mg/kg, urine 0–7 and 7–24 hrs), the GT-14 in urine result is given as “not detected”.
